Here are results for seven molecules from US6376753B1, “PURIFIED CYTOCHROME P450 POLYPEPTIDE CYP76B1 FROM HELIANTHUS TUBEROSUS AND ITS APPLICATIONS AS BIOCATALYST IN PARTICULAR FOR THE DEGRADATION OF ENVIRONMENTAL POLLUTANTS AND FOR ALTERING THE RESISTANCE OF PLANTS SENSITIVE TO PHENYLUREA FAMILY OF HERBICIDES” (priority 1997, dated 2002).

The subject of series [1] is 7-methoxyresorufin O-dealkylase activity. The series can be described thus: Induction of 7-methoxyresorufin O-demethylase activity in tuber slices. It is filed as cell-based, Helianthus tuberosus. Particulars: 48 hours of treatment. The protocol: Slices of dormant tuber of Helianthus tuberosus were placed under survival conditions in oxygenated distilled water and stirred with a current of compressed air in the presence of various metals or organic compounds (effectors).
A control was performed with DMSO alone.

Series [2] concerns CYP76B1 transcripts. Particulars: tuber tissues aged 48 h with the chemical.
For series [3], the system named is CYP76B1 transcripts.
Series [4] concerns the target T1, CYP76B1 (Helianthus tuberosus, UniProt O23976).
T1 sequence (O23976 1-490): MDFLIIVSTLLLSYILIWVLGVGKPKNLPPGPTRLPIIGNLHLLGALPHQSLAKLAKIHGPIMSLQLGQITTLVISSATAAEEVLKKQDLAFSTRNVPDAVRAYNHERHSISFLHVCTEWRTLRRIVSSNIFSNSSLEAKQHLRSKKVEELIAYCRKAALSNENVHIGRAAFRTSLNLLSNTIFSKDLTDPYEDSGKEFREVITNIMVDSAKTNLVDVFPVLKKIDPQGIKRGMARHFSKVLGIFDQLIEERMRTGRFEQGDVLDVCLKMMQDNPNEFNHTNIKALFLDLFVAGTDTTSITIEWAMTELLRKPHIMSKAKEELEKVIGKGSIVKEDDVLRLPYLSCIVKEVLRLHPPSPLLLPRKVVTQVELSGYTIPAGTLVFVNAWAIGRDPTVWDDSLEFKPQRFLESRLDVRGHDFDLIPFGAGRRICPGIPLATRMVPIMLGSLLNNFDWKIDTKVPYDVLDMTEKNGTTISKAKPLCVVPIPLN
The series can be described thus: biochemical. The procedure: (§1) Spectrophotometric measurements of P450 content and substrate binding were performed as in (Gabriac et al., 1991) and SDS-PAGE was performed as in Gabriac et al. (34). Gels were stained with Coomassie Blue R-250. Alkoxycoumarins and alkoxyresorufins O-dealkylation was measured by fluorometry (Werck-Reichhart et al., 1990). The data are means ± S.D. of triplicates.
The binding of substrates into the catalytic site of a P450 usually induces a shift of its maximum of absorbance, redox potential and iron spin state (Raag and Poulos, 1989) resulting from the displacement of the water sixth ligand of the heme iron. It is easily detected by differential spectrophotometry as a so-called type I spectrum with a peak at 390 nm and a trough at 420 nm (Jefcoate, 1978). The variation of the differential absorbance ΔA390-420 versus substrate concentration allows the calculation of an apparent dissociation constant (Ks). A high ΔAmax induced by the ligand is usually an indication of correct positioning for catalysis.
CYP76B1 was 60 nM in the assays. Difference spectra were recorded after the addition of increasing concentrations of ligands to the sample cuvette. An equal volume of the herbicide solvent (DMSO) was added to the reference. Ks and ΔAmax at saturating ligand concentration were calculated from the double-reciprocal plots of ΔA(390-420 nm) versus substrate concentrations.

The subject of series [5] is cotton seedling hypocotyl microsomes. To be noted: read-out: Km for demethylation; cited from earlier work.
For series [6], the target named is T1, CYP76B1. In words: CYP76B1-dependent metabolism (O-/N-dealkylation) in microsomes of transformed yeast. To be noted: for Activity: + NADPH; for turnover of the dealkylation: for phenylureas first dealkylation; for ECOD activity: Transformed yeast W(R). The protocol:
BamHI and EcoRI sites were introduced by PCR just upstream of the ATG and downstream of the stop codon of the CYP76B1 coding sequence, using the primers 5′-[…] (sense) 5′-[…] (reverse) (SEQ ID NO 3 and SEQ ID NO 4 respectively). The PCR mixture was preheated for 2 min at 92° C. before addition of 1 unit of Pfu DNA polymerase (Stratagene). After 3 min additional heating at 92° C., 30 cycles of amplification were carried out as follows 1 min denaturation at 92° C., 1 min annealing at 52° C., 2 min extension at 72° C. The reaction was completed by 10 min extension at 72° C. After BamHI/EcoRI digestion, the 1470 bp coding sequence was inserted into the vector pYeDP60 (32). Transformation of Saccharomyces cerevisiae W(R), WAT11 and WAT21, and yeast growth were conducted according to Pompon et al. (32). Yeast microsomes were prepared as described in Pierrel et al. (33) with addition of 1% SAB, 2 mM β-mercaptoethanol, 10 mM sodium disulfite and 1 mM PMSF to the extraction buffer. When indicated, 0.5 mM δ-aminolevulinic acid methyl ester (Sigma) was added to the induction medium, or cells were stored at 4° C. for 24 h before preparation of the microsomes.
as §1
The conversion of other molecules was assayed by TLC or HPLC analysis of polar metabolites formed from radiolabeled compounds (Cabello-Hurtado et al., 1998a, b). NADPH-cytochrome c reductase was assayed according to (Benveniste et al., 1986). Kinetic data were fitted using the nonlinear regression program […] (Duggleby, 1984).
10 μL of non-immune serum or of serum raised against purified ECOD fraction were preincubated 2 min at room temperature with 10 μL of microsomes before addition of the reaction mix. n.d.: not detectable.
Conversion was estimated from the sum of the two polar metabolites detected after TLC analysis. Data are means + S.D. of two to four determinations. n.d.: not detected.
CYP76B1 concentrations in the MCOD, ECOD, MROD and EROD fluorometric assays were 1.5 nM or 2.1 nM, depending on the coexpressed ATR1 or yeast reductases. In the CTUDM assays, CYP76B1 concentrations were 1.7 nM (ATR1) and 8 nM (yeast), respectively. It was 12 nM for the determination of the catalytic parameters of monodemethyl-CTUDM, and 1.7 nM (ATR1) or 20 nM (yeast) in the IPUDM assays. Products were quantified by direct TLC analysis of 100 μL of the acidified incubation medium after 6 min incubation at 30° C. for the CTUDM and IPUDM assays, and after 9 min incubation for the monodemethyl-CTUDM.

In the next series the target is T2, CYP73A1 (Helianthus tuberosus, UniProt Q04468).
T2 construct: host or cells: yeast-expressed, according to b197
T2 sequence (Q04468 1-505): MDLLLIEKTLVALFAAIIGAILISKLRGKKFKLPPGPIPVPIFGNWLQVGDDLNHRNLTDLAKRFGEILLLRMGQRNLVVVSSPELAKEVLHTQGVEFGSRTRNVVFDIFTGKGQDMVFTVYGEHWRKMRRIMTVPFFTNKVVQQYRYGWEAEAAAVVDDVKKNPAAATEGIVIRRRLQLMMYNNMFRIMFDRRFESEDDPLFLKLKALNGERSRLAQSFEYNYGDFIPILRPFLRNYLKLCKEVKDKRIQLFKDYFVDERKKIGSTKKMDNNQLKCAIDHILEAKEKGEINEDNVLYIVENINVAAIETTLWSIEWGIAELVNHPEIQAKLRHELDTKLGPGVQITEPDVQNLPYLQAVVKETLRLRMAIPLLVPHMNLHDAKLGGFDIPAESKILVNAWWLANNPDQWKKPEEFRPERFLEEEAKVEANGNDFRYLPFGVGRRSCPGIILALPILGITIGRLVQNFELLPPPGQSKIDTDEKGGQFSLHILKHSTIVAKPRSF
To be noted: chlortoluron hydroxylation; cited from earlier work.

The subject of series [7] is microsomes from aminopyrine-induced H. tuberosus tuber tissues. In words: ECOD activity in microsomes from aminopyrine-induced tuber tissues. It is filed as biochemical, Helianthus tuberosus. The source says: Gels were stained with Coomassie Blue R-250. […] The data are means ± S.D. of triplicates.
Table 1: NADPH- and cumene hydroperoxide-dependent ECOD activity in microsomes from aminopyrine-induced H. tuberosus tuber tissues and in microsomes from control and CYP76B1-transformed yeast. Immunoinhibition by anti-ECOD antibodies.

In a further series the test system is control yeast microsomes. In words: Metabolism in control yeast microsomes (void plasmid pYeDP60). It is filed as biochemical, Saccharomyces cerevisiae. Particulars: NADPH.
Substrate in series [8]: CC(C)c1ccc(NC(=O)N(C)C)cc1
The series can be described thus: purified protein, by the assay type.

Substrate in series [9]: CCOc1ccc2ccc(=O)oc2c1
The series can be described thus: purified protein, by the assay type.

Substrate in series [10]: CCOc1ccc2nc3ccc(=O)cc-3oc2c1
In words: purified protein, by the assay type. Particulars: other: coexpressed yeast reductase (W(R)).

Substrate in series [11]: COc1ccc2ccc(=O)oc2c1
In words: purified protein, by the assay type.

Substrate in series [12]: Cc1ccc(NC(=O)N(C)C)cc1Cl
In words: purified protein, by the assay type.

Where [13] appears, read: 50 μM NADPH, 400 μM 7-ethoxycoumarin.
The mark [14] stands for this setting: other: coexpressed reductase ATR1 (WAT11).
[15] abbreviates: other: coexpressed yeast reductase (W(R)).

In the case of `CCC1(c2ccccc2)C(=O)NC(=O)NC1=O.[Na]` [phenobarbital, 5-ethyl-5-phenyl-barbituric acid, sodium salt], the “induction of 7-methoxyresorufin O-dealkylase activity” value (“induction” below) in series [1] is recorded as “very strongly induced”. In the series with CYP76B1 transcripts [2], the “effect on CYP76B1 mRNA accumulation / expression” value was “strongly induced” and the “level of CYP76B1 transcripts relative to the control” value was 6 ×.

Regarding `Cc1c(N(C)C)c(=O)n(-c2ccccc2)n1C` [aminopyrine], in [1], the “induction” value is listed as “very strongly induced”. In the series on CYP76B1 transcripts [3], the “fold more transcripts coding for CYP76B1 than for CYP73A1 or CYP81B1” value is given as 2 to 6 fold.

By Kd is commonly meant the constant that tells how readily two partners part at equilibrium. Read a low Kd as a tighter complex. One may read the Km as the substrate concentration at which the rate is half of its maximum. Turning to `CN(C)C(=O)Nc1ccc(Cl)c(Cl)c1` [Diuron], the Kd on CYP76B1 [4] stood at 20 µM. In addition, the Km in [5] was 15 µM.

As for `Cc1ccc(NC(=O)N(C)C)cc1Cl` [Chlortoluron, N-(3-chloro-p-tolyl)-N′,N′-dimethylurea], the Kd on CYP76B1 [4] turned out to be 24 µM. For the same molecule, the “ΔAmax × 10^−3” value on CYP76B1 [4] (CYP76B1 60 nM, at saturating ligand concentration) is recorded as 5.1 × 10^−3. For the same molecule, the figures for the Activity on CYP76B1 [6] (W(R) strain) and on CYP76B1 [6] (WAT11 strain) were 1223 pkat mg-1 protein and 4258 pkat mg-1 protein, respectively. Further, the figures for the “turnover of the dealkylation” value at CYP76B1 [6] (W(R) strain) and at CYP76B1 [6] (WAT11 strain) were “about 376 min^−1” and 803 min⁻¹, respectively. Further, the Kcat was 13.4 s⁻¹ on CYP76B1 [6] (coexpressed reductase ATR1 (WAT11)) and 6.27 s⁻¹ at CYP76B1 [6] (coexpressed yeast reductase (W(R))). For the same molecule, the “kCat of the second demethylation” value at CYP76B1 [6] (second demethylation, slow step for complete detoxification) stood at 0.767 s⁻¹. Further, at CYP73A1, the “reaction turnover (hydroxylation)” value is 0.014 min⁻¹.

For the molecule `CCOc1ccc2ccc(=O)oc2c1` [7-ethoxycoumarin], on CYP76B1 [6] (ECOD, W(R) yeast microsomes, NADPH), the Vmax turned out to be 600 pkat.pmole^−1 P450. Also, the ECOD activity is 8.4 ± 0.05 pkat · mg^−1 protein at CYP76B1 [6] (setting [13]); “no activity” at CYP76B1 [6] (125 μM cumene hydroperoxide); 7.5 ± 0.2 pkat · mg^−1 protein on CYP76B1 [6] (NADPH + anti-ECOD antibodies); 5.2 ± 0.1 pkat · mg^−1 protein in [7] (setting [13]); 2.5 ± 0.09 pkat · mg^−1 protein in [7] (125 μM cumene hydroperoxide); 2.6 ± 0.1 pkat · mg^−1 protein in series [7] (NADPH + anti-ECOD antibodies). Also, the ECOD activity result in the series with control yeast microsomes was “No activity”. For the same molecule, the Activity is 8.4 pkat mg-1 protein on CYP76B1 [6] (W(R) strain) and 15.9 pkat mg-1 protein at CYP76B1 [6] (WAT11 strain). In addition, the “turnover of the dealkylation” value was determined as 10 min⁻¹ at CYP76B1 [6] (W(R) strain) and 30 min⁻¹ at CYP76B1 [6] (WAT11 strain).

For the molecule `[Cl][Mn][Cl]` [manganese, MnCl2], the “induction” value in series [1] was “very strongly induced”. In addition, in the series with CYP76B1 transcripts [3], the “fold more transcripts coding for CYP76B1 than for CYP73A1 or CYP81B1” value is on record as 2 to 6 fold.

B1: CYP76B1 (Helianthus tuberosus) (protein)
chain: T1 sequence (O23976 1-490)
As usually defined, the kcat is the maximal rate divided by the concentration of active sites. As a reminder, the kcat/Km is the turnover number divided by the Michaelis constant. Consider B1, for which the Km in series [8] (setting [14]) amounted to 289 µM; in [8] (setting [15]) it was 361 µM; in series [9] (setting [14]), 60 µM; in series [9] (setting [15]), 74 µM; in [10], 0.49 µM; in [11] (setting [14]), 808 µM. Also, the Km came to 899 µM in series [11] (setting [15]), 179 µM in series [12] (setting [14]) and 202 µM in series [12] (setting [15]). The turnover number (kcat) in series [9] (setting [14]) worked out at 0.5 s⁻¹; in series [9] (setting [15]) it was 0.167 s⁻¹; in series [10], 0.1 s⁻¹; in series [11] (setting [14]), 0.517 s⁻¹; in series [11] (setting [15]) it was 0.217 s⁻¹. Also, the kcat/Km in series [9] (setting [14]) is 8330 M⁻¹ s⁻¹; in series [9] (setting [15]), 2170 M⁻¹ s⁻¹; in series [10], 200000 M⁻¹ s⁻¹; in [11] (setting [14]), 667 M⁻¹ s⁻¹; in [11] (setting [15]) it was 167 M⁻¹ s⁻¹.
